Source: ChEMBL document CHEMBL4613278, “Pyridine Derivative of the Natural Alkaloid Berberine as Human Telomeric G4-DNA Binder: A Solution and Solid-State Study” (ACS Med Chem Lett, 2020)
Active and inactive are the calls of the source. No cut-off for these calls is given here.

Tests used:
Assay type in all cases: nucleic-acid assay
[1] = test system: Quadruplex DNA; assay: Binding affinity to human Tel12 G4 quadruplex DNA assessed as decrease in absorption maxima at 338 and 413 nm at 3 uM by spectrophotometric titration analysis
[2] = test system: Quadruplex DNA; assay: Binding affinity to human Tel12 G4 quadruplex DNA assessed as decrease in intensity of positive peaks measured after 5 mins by circular dichroism method
[3] = test system: Quadruplex DNA; assay: Binding affinity to human Tel23 G4 quadruplex DNA at 298.15 K by isothermal titration calorimetric analysis
[4] = test system: Quadruplex DNA; assay: Binding affinity to human Tel12 G4 quadruplex DNA at 298.15 K by isothermal titration calorimetric analysis
[5] = test system: Quadruplex DNA; assay: Binding affinity to human Tel23 G4 quadruplex DNA assessed as decrease in intensity of positive peaks measured after 5 mins by circular dichroism method
[6] = test system: Quadruplex DNA; assay: Binding affinity to human Tel23 G4 quadruplex DNA assessed as sharp isosbestic point at 350, 375 and 430 nm at 3 uM by spectrophotometric titration analysis
[7] = test system: Quadruplex DNA; assay: Binding affinity to human Tel23 G4 quadruplex DNA assessed as change in enthalpy at 298.15 K by isothermal titration calorimetric analysis
[8] = test system: Quadruplex DNA; assay: Binding affinity to human Tel23 G4 quadruplex DNA assessed as change in entropy at 298.15 K by isothermal titration calorimetric analysis
[9] = test system: Quadruplex DNA; assay: Binding affinity to human Tel12 G4 quadruplex DNA assessed as sharp isosbestic point at 351 and 433 nm at 3 uM by spectrophotometric titration analysis
[10] = test system: Quadruplex DNA; assay: Binding affinity to human Tel12 G4 quadruplex DNA assessed as change in entropy at 298.15 K by isothermal titration calorimetric analysis
[11] = test system: Quadruplex DNA; assay: Binding affinity to human Tel23 G4 quadruplex DNA assessed as decrease in absorption maxima at 338 and 413 nm at 3 uM by spectrophotometric titration analysis
[12] = test system: Quadruplex DNA; assay: Binding affinity to human Tel12 G4 quadruplex DNA assessed as gibbs free energy change at 298.15 K by isothermal titration calorimetric analysis
[13] = test system: Quadruplex DNA; assay: Binding affinity to human Tel12 G4 quadruplex DNA assessed as change in enthalpy at 298.15 K by isothermal titration calorimetric analysis
[14] = test system: Quadruplex DNA; assay: Binding affinity to human Tel23 G4 quadruplex DNA assessed as quadruplex DNA stabilization by measuring increase in melting temperature at compound:quadruplex DNA ratio of 1:1 by thermal melting studies
[15] = test system: Quadruplex DNA; assay: Binding affinity to human Tel23 G4 quadruplex DNA assessed as increase in fluorescence intensity at 1 uM by spectrofluorimetric titration analysis
[16] = test system: Quadruplex DNA; assay: Binding affinity to human Tel12 G4 quadruplex DNA assessed as quadruplex DNA stabilization by measuring increase in melting temperature at compound:quadruplex DNA ratio of 1:1 by thermal melting studies
[17] = test system: Quadruplex DNA; assay: Binding affinity to human Tel12 G4 quadruplex DNA assessed as increase in fluorescence intensity at 1 uM by spectrofluorimetric titration analysis
[18] = test system: Quadruplex DNA; assay: Binding affinity to human Tel23 G4 quadruplex DNA assessed as gibbs free energy change at 298.15 K by isothermal titration calorimetric analysis

In the case of `COc1ccc2c(CCCc3ccncc3)c3[n+](cc2c1OC)CCc1cc2c(cc1-3)OCO2`, the Activity [1] is reported as “Active”, the Activity [2] is reported as “Active” and the K [3] is reported as 8.15 ×10⁴ /M. The K [4] was 3.16 ×10⁵ /M, the Activity [5] was “Active” and the Activity [6] was “Active”. For the same molecule, the deltaH [7] was -8.53 kcal/mol, the TdeltaS [8] was -1.97 kcal/mol and the Activity [9] was “Active”. The TdeltaS [10] was 0.3 kcal/mol, the Activity [11] was “Active” and the deltaG [12] was -7.38 kcal/mol. The deltaH [13] was -7.08 kcal/mol, the deltaTm [14] was 2 K and the Activity [15] was “Active”. For the same molecule, the deltaTm [16] was 15 K, the Activity [17] was “Active” and the deltaG [18] was -6.55 kcal/mol.
